In PMC3090393, “New Noncovalent Inhibitors of Penicillin-Binding Proteins from Penicillin-Resistant Bacteria” (PLoS ONE, 2011):
≈ marks a conversion by molar mass, not a printed value.

Key:
[1] = system: Streptococcus pneumoniae ATCC 33400; assay: In-vitro antibacterial activity (MIC, broth microdilution); assay type: cell-based; details: ATCC33400
Method: (§1) Determination of the antibacterial activities was carried out on microtiter plates, in 200 µL (final volume) of Müeller-Hinton Broth (MHB), following EUCAST (European Committee on Antimicrobial Susceptibility testing)/CLSI (Clinical and Laboratory Standard Institute) recommended procedures, [25]. The compounds were solubilized in MHB, just before use. Inocula were prepared for each strain by resuspending isolated colonies from 18 h cultured plates. Equivalents of 0.5 Mac Farland turbidity standards (approximately 1×10^8 CFU mL^−1) were prepared in saline solution ([…]) and then diluted 200-fold in MBH.

[2] = system: Klebsiella pneumoniae ATCC 13883; assay: as above; assay type: cell-based; details: ATCC13883
Method: as §1

[3] = system: Enterococcus faecium ATCC 19434; assay: as above; assay type: cell-based; details: ATCC19434
Method: as §1

[4] = system: Micrococcus luteus ATCC 9341; assay: as above; assay type: cell-based; details: ATCC9341
Method: as §1

[5] = system: Staphylococcus aureus ATCC 25923; assay: as above; assay type: cell-based; details: ATCC25923
Method: as §1

[6] = system: Staphylococcus aureus ATCC 43300 (MRSA); assay: as above; assay type: cell-based
Method: as §1

[7] = system: Streptococcus pneumoniae ATCC 49619; assay: as above; assay type: cell-based; details: ATCC49619
Method: as §1

[8] = system: Pseudomonas aeruginosa ATCC 27853; assay: as above; assay type: cell-based; details: ATCC27853
Method: as §1

[9] = system: Listeria monocytogenes ATCC 14780; assay: as above; assay type: cell-based; details: ATCC14780
Method: as §1

[10] = system: Enterococcus faecalis ATCC 29212; assay: as above; assay type: cell-based; details: ATCC29212
Method: as §1

[11] = system: Citrobacter freundii ATCC 8090; assay: as above; assay type: cell-based; details: ATCC8090
Method: as §1

[12] = system: Escherichia coli ATCC 8739; assay: as above; assay type: cell-based; details: ATCC8739
Method: as §1

[13] = system: Staphylococcus aureus mp 1 (inducible MRSA); assay: as above; assay type: cell-based
Method: as §1

[14] = system: Listeria innocua ATCC 33090; assay: as above; assay type: cell-based; details: ATCC33090
Method: as §1

[15] = system: Proteus mirabilis ATCC 29936; assay: as above; assay type: cell-based; details: ATCC29936
Method: as §1

[16] = system: Enterococcus faecalis ATCC 7937; assay: as above; assay type: cell-based; details: ATCC7937
Method: as §1

[17] = system: Staphylococcus epidermidis ATCC 12228; assay: as above; assay type: cell-based; details: ATCC12228
Method: as §1

[18] = system: Enterococcus hirae ATCC 8790; assay: as above; assay type: cell-based; details: ATCC8790
Method: as §1

[19] = system: Bacillus subtilis ATCC 6633; assay: as above; assay type: cell-based; details: ATCC6633
Method: as §1

[20] = system: Streptococcus pneumoniae D39; assay: as above; assay type: cell-based
Method: as §1

[21] = system: panel of five Gram-negative and 15 Gram-positive bacterial strains; assay: In-vitro antibacterial activity (MIC), whole panel; assay type: cell-based; details: summary over the whole panel; read-out: MICs for all of the bacterial strains under investigation
Method: as §1

PBP5fm = PBP5fm (Enterococcus faecium, UniProt Q47759); assay: PBP5fm enzymatic inhibition assay (fluorescein-labeled ampicillin, residual penicillin binding activity); assay type: biochemical, Enterococcus faecium D63r; details: for activity at 1000 µM: 4 h, residual activity of the enzyme at 1 mM inhibitor, 0.01% Triton X-100, read-out: PBP5fm RA [%]
Sequence of PBP5fm (Q47759 entry or part of it): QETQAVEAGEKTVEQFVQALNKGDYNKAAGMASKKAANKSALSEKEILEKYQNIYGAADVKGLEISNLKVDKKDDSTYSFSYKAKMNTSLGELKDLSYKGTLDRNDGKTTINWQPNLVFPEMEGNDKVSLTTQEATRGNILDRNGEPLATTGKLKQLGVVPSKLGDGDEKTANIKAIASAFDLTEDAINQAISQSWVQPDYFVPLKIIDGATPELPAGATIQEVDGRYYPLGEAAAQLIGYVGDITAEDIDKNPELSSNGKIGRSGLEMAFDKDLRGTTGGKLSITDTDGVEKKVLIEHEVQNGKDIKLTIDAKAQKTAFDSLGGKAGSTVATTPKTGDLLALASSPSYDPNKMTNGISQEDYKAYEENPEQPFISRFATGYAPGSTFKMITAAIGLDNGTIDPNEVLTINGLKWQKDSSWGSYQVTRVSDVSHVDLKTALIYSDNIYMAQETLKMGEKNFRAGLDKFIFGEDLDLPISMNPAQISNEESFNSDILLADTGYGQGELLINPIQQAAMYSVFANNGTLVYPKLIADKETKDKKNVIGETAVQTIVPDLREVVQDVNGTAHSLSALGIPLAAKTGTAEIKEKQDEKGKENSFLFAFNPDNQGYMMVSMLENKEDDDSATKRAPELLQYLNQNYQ
Method: (§2) PBP2a from Staphylococcus aureus ATCC 43300 and PBP5fm from Enterococcus faecium D63r were overproduced and purified as described previously, [18].
(§3) Each of the purified PBPs (2.5 µM) were first incubated with 1 mM potential inhibitor in 100 mM phosphate buffer, 0.01% Triton X-100[19], pH 7, for 4 h at 30°C. Then, 25 µM fluorescein-labeled ampicillin[20] was added to detect the residual penicillin binding activity (RA). The samples were further incubated for 30 min at 37°C in a total volume of 20 µL. Denaturation buffer was added (0.1 M Tris/HCl, pH 6.8, containing 25% glycerol, 2% SDS, 20% β-mercaptoethanol and 0.02% bromophenol blue) and the samples were heated to 100°C for 1 min. The samples were then loaded onto a 10% SDS-acrilamide gel (10×7 cm) and electrophoresis was performed for 45 min at 180 V (12 mA). Detection and quantification of the RAs were with Molecular Image FX equipment and Quantity One software (BioRad, Hercules, CA, USA). Three independent experiments were carried out for each inhibitor.

PBP2a = biological target: T1, PBP2a (Staphylococcus aureus, UniProt P07944); assay: PBP2a enzymatic inhibition assay (fluorescein-labeled ampicillin, residual penicillin binding activity); assay type: biochemical, Staphylococcus aureus ATCC 43300; details: 4 h; residual activity of the enzyme at 1 mM inhibitor; 0.01% Triton X-100; mean of three experiments; read-out: PBP2a RA [%]
T1 construct: made in house
T1 sequence (P07944 whole entry): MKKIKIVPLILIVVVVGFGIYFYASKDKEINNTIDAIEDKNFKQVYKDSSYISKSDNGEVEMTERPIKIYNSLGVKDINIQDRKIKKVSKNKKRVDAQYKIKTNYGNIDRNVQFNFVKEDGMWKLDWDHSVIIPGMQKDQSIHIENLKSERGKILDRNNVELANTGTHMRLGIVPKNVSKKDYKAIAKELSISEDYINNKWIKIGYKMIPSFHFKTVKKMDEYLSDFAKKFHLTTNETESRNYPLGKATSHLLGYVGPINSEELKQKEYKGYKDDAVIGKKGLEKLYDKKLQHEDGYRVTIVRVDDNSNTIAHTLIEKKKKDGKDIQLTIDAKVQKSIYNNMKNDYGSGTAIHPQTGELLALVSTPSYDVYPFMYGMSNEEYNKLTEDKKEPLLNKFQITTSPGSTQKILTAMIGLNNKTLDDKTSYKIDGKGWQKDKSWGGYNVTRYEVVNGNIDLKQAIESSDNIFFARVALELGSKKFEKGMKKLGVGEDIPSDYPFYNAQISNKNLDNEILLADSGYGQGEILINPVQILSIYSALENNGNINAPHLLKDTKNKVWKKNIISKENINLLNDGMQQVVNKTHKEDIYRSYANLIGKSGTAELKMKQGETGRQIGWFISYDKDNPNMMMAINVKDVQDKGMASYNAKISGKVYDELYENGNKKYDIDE
Method: as §2, §3

PBP2x 5204 = PBP2x 5204 (Streptococcus pneumoniae, UniProt P59676); assay: PBP2x 5204 enzymatic inhibition assay (S2d hydrolysis, DTNB); assay type: biochemical, Streptococcus pneumoniae strain 5204; details: residual activity of the enzyme at 1 mM inhibitor; 240 min
Sequence of PBP2x 5204 (P59676 49-750): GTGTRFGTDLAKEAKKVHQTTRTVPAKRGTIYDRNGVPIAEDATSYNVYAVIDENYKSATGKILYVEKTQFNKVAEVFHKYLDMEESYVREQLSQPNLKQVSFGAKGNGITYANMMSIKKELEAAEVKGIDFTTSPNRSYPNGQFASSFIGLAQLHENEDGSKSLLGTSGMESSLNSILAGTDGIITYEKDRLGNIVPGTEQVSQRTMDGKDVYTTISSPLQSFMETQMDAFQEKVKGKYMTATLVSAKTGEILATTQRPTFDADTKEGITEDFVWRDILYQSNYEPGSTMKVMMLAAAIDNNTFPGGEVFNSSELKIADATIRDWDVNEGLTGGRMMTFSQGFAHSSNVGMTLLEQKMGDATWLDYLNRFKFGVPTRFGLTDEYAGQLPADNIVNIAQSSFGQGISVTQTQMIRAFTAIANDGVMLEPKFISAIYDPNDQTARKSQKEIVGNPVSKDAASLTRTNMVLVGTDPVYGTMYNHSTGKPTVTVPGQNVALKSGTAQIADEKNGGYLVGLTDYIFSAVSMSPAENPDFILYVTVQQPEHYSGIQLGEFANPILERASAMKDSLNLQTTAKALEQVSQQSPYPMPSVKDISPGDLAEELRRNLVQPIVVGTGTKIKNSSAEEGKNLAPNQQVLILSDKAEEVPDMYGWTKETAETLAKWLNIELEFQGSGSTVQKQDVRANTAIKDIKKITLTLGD
Method: PBP2x-5204 from Streptococcus pneumonia and N-benzoyl-D-alanyl-thioglycolate S2d[21], [22] were prepared as previously described. All assays with PBP2x 5204 were carried out in 96-well microtiter plates (Brand, Wertheim, Germany). PBP2x 5204 (0.6 µM) was incubated in the presence of the potential inhibitors in 10 mM sodium phosphate buffer (pH 7.0) containing 70 mM D-alanine and 0.01 mg/mL BSA, for 4 h at 25°C. This preincubation was used to also detect slow binding inhibitors. After the preincubation, the RA of PBP2x 5204 was determined. The initial rate of hydrolysis of 1 mM S2d in the presence of 1 mM DTNB was determined by monitoring the increase in absorbance at 412 nm (DTNB: ε[Δ ε] = […]) using a microplate absorbance reader (Power Wave X, Biotek Instruments, Winooski, U.S.A.). The rate of spontaneous hydrolysis of S2d in the presence of the potential inhibitors was also determined in the absence of PBP2x 5204. All of the assays were carried out in triplicate. The determination of the RA of PBP2x 5204 in the absence of inhibitors was carried out six times on each plate. A test compound was considered as an inhibitor if the RA was <80%. In this case, to reveal false positives, the assays were also carried out under the same conditions in the presence of 0.01% Triton X-100. As described in the literature, promiscuous inhibitors (false positives) are slow binding, noncompetitive inhibitors. To avoid detailed kinetic investigations, it is possible to identify such compounds by carrying out the assays in the presence of Triton X-100[14], [19]. Promiscuous inhibitors show no inhibition in the presence of Triton X-100. The IC50 values in the presence of Triton X-100 were determined if the RAs were <50%. (RA: ∼50%, IC50∼c, c: concentration of compound in the assay; RA >50%, IC50 > c). The RA was measured over a range of concentrations, from which the IC50 values were determined by non-linear regression analysis, using Sigma Plot (Systat software) and fitting the data to the equation y = y0+(a×b)/(b+x)[23].

| Compound | MIC [1] [µg/mL] | MIC [2] [µg/mL] | MIC [3] [µg/mL] | MIC [4] [µg/mL] | MIC [5] [µg/mL] | MIC [6] [µg/mL] | MIC [7] [µg/mL] | MIC [8] [µg/mL] | MIC [9] [µg/mL] | MIC [10] [µg/mL] | MIC [11] [µg/mL] | MIC [12] [µg/mL] | MIC [13] [µg/mL] | MIC [14] [µg/mL] | MIC [15] [µg/mL] | MIC [16] [µg/mL] | MIC [17] [µg/mL] | activity at 1000 µM (PBP5fm) [%] | remaining activity at 1000 µM (PBP2a) [%] | PBP2x5204 RA [%] (PBP2x 5204) | also measured |
| --- | --- | --- | --- | --- | --- | --- | --- | --- | --- | --- | --- | --- | --- | --- | --- | --- | --- | --- | --- | --- | --- |
| CC1(C)S[C@@H]2[C@H](NC(=O)[C@H](N)c3ccccc3)C(=O)N2[C@H]1C(=O)O [Ampicillin, reference compound] | 0.03 (≈ 0.0859 µM) | 256 (≈ 733 µM) | 64 (≈ 183 µM) | 0.5 (≈ 1.43 µM) | 0.25 (≈ 0.715 µM) | 1020 (≈ 2930 µM) | 0.06 (≈ 0.172 µM) | > 1020 | 0.5 (≈ 1.43 µM) | 2 (≈ 5.72 µM) | 128 (≈ 366 µM) | 4 (≈ 11.4 µM) | 1020 (≈ 2930 µM) | 0.25 (≈ 0.715 µM) | 2 (≈ 5.72 µM) | 2 (≈ 5.72 µM) | 16 (≈ 45.8 µM) |  |  |  | MIC [18]: 64 µg/mL (≈ 183 µM); MIC [19]: 0.5 µg/mL (≈ 1.43 µM); MIC [20]: 0.06 µg/mL (≈ 0.172 µM) |
| NC(=O)c1cccc(NS(=O)(=O)c2cccc3cccnc23)c1 [compound 2, 3-(Quinoline-8-sulfonamido)benzamide] | > 512 | > 512 | > 512 | > 512 | > 512 | > 512 | > 512 | > 512 | > 512 | > 512 | > 512 | > 512 | > 512 | > 512 | > 512 | > 512 | > 512 | 39 | 58 | 123 | MIC [18]: > 512 µg/mL; MIC [19]: > 512 µg/mL; MIC [20]: > 512 µg/mL; MIC [21]: > 512 µg/mL; IC50 (PBP5fm; in the presence of 0.01% Triton X-100): 930 µM |
| O=S(=O)(Nc1ccc(O)cc1)c1cccc2cccnc12 [compound 3, N-(4-Hydroxyphenyl)quinoline-8-sulfonamide] |  |  |  |  |  |  |  |  |  |  |  |  |  |  |  |  |  | 65 | 67 | 80 |  |
| CCOc1ccc(NS(=O)(=O)c2ccc(C(=O)O)cc2)cc1 [compound 4, 4-(N-(4-Ethoxyphenyl)sulfamoyl)benzoic acid] |  |  |  |  |  |  |  |  |  |  |  |  |  |  |  |  |  | 100 | 83 | 101 |  |
| CCOc1ccc(S(=O)(=O)Nc2ccc(C(=O)O)cc2)cc1 [compound 5, 4-(4-Ethoxyphenylsulfonamido)benzoic acid] |  |  |  |  |  |  |  |  |  |  |  |  |  |  |  |  |  | 73 | 86 | 81 |  |
